Source: patent US20150343016A1, “CHEMICAL ENTITIES AND THERAPEUTIC USES THEREOF” (The Regents of the University of Colorado, a body corporate, priority 2010, published 2015)

Tests used:
Drosophila = assay: Sensitizing flies to ionizing radiation (FIG. 7); type: in vivo
From the text: Bouvardin derivatives are depicted in FIG. 4 as a generic Formula III, with the specific derivative used in this example having R1=COOCH3, R2=OCH3, R3=H, R4=Boc, R5=CH3.
Feeding stage 3rd instar larvae were irradiated as previously described (2). Briefly, 120 hr old larvae were rinsed to remove food and passed through sizing sieves to obtain animals of uniform size. Larvae were placed in a Petri dish and irradiated using a TORREX X-ray generator, set at 115 kV and 5 mA (producing 2.4 Rads/sec or 1.44 Gy/min) Irradiated larvae were then cultured on cornmeal-agar media (2) containing drug or DMSO carrier. In all experiments using human cells, cells in 96-well plates were irradiated with a RS2000 Biological Irradiator (Rad Source Technologies, Inc.) delivering 1 Gy/min.

[1] = system: 1586 Head and Neck Cancer cell line; assay: MTT assay, Bouvardin with ionizing radiation, 1586 (pre-treated); type: cell-based, human; conditions: 1586 cells
Protocol: “Combination Index” computation. Combination Indices were calculated using CalcuSyn software (Biosoft), which uses the method of Chou and Talalay. This method first computes drug-induced effect using the Hill Equation: where E is the measured effect; C is the drug concentration; Emax is the full range of drug effect, usually at or near 100%; IC50 is the drug concentration producing the median effect of 50%; and n is the curve shape parameter describing the steepness of the concentration-effect relationship. The Chou and Talalay method then linearizes the Hill Equation by logarithmic transformation as: where fu is the fraction of cells left unaffected after drug exposure, fa is the fraction of cells affected by the exposure, C is the drug concentration used, Cm is the concentration to achieve the median effect, and n is the curve shape parameter. Cm and n are equivalent to IC50 and n, respectively, in the Hill Equation. The values of n (obtained from the slope), nlog(Cm) (obtained from the absolute value of the intercept), and, therefore, Cm are obtained by plotting log(fu−1−1) versus log(C). These numbers are then used to compute the Combination Index (CI) according to the formula: CI=(D)1/(Dx)1+(D)2/(Dx)2 (26). (Dx)1 and (Dx)2 are the doses required to achieve a given effect level for each treatment, i.e. a specified value of Fraction Affected or Fa. (D)1 and (D)2 are the doses of each treatment in a given combination which gives the same Fa.
The growth inhibitory effects of Bouvardin with ionizing radiation (IR) were evaluated using a modified tetrazolium salt (MTT) assay. In the MTT assay, 1,000 to 2,000 viable cells were plated in 100 uL of growth medium in 96-well plates (Corning, Ithaca, N.Y.). Following an overnight incubation, drug was added in varying concentrations and the plates were irradiated on the same day (co-treatment) or 24 hr later (pre-treatment) and incubated for 6 to 7 days. The tetrazolium salt was added at a concentration of 0.4 mg/mL to each well following the 6- to 7-day treatment. The plates were incubated with the salt for 4 hours at 37° C. At 4 hours, the medium was aspirated off, leaving the dark blue formazan product at the bottom of the wells. The reduced MTT product was solubilized by adding […] of 0.2 N HCl in 75% isopropanol, 23% MilliQ water to each well. Thorough mixing was done using a Titertek multichannel pipetman. The absorbency of each well was measured using an automated plate reader (Molecular Devices, Sunnyvale, Calif.). All experiments were done in triplicate.
MTT assays were used to determine the effect of Bouvardin (concentrations in uM) in combination with ionizing radiation (in Gy, X-axis). FIG. 14 depicts CI values for Bouvardin and radiation on 3 cell lines. Combination Index data from 3 different Head and Neck Cancer cell lines are shown. Black dashed lines represent a CI value of 1. CI values below 1 indicate synergy. 1586 and UM-SCC19 were pre-treated whereas HN31 was treated on the same day.

**Q.** How did the “observed effect of drug with radiation versus additive effect” value (Drosophila) turn out when `COc1ccc(C[C@H]2C(=O)N[C@H](C)C(=O)N(C)[C@@H]3C(=O)N(C)[C@@H](Cc4ccc(O)c(c4)Oc4ccc(cc4)[C@H]3O)C(=O)N[C@@H](C)C(=O)N[C@H](C)C(=O)N2C)cc1` (stereo in doubt) [Bouvardin, bouvardin] was run?
**A.** Its value is “exceeds additive effect of drug and radiation”.

**Q.** And the “Combination Index” value ([1]; Bouvardin 0.001 uM + 1 Gy IR)?
**A.** Its value is 1.553.

**Q.** And the “Fraction Affected” value ([1]; Bouvardin 0.001 uM + 1 Gy IR)?
**A.** Its value is 0.254.

**Q.** What about the “Combination Index” value ([1]; Bouvardin 0.001 uM + 2 Gy IR) of the same compound?
**A.** Its value is 0.903.

**Q.** And the “Fraction Affected” value ([1]; Bouvardin 0.001 uM + 2 Gy IR)?
**A.** Its value is 0.23.

**Q.** What about the “Combination Index” value ([1]; Bouvardin 0.001 uM + 4 Gy IR) of the same compound?
**A.** Its value is 1.112.

**Q.** What about the “Fraction Affected” value ([1]; Bouvardin 0.001 uM + 4 Gy IR) of the same compound?
**A.** The value was 0.503.

**Q.** And the “Combination Index” value ([1]; Bouvardin 0.003 uM + 1 Gy IR)?
**A.** Its value is 1.898.

**Q.** What about the “Fraction Affected” value ([1]; Bouvardin 0.003 uM + 1 Gy IR) of the same compound?
**A.** The value was 0.264.

**Q.** What about the “Combination Index” value ([1]; Bouvardin 0.003 uM + 2 Gy IR) of the same compound?
**A.** The value was 1.383.

**Q.** What about the “Fraction Affected” value ([1]; Bouvardin 0.003 uM + 2 Gy IR) of the same compound?
**A.** Its value is 0.303.

**Q.** What about the “Combination Index” value ([1]; Bouvardin 0.003 uM + 4 Gy IR) of the same compound?
**A.** Its value is 0.753.

**Q.** And the “Fraction Affected” value ([1]; Bouvardin 0.003 uM + 4 Gy IR)?
**A.** Its value is 0.51.

**Q.** And the “Combination Index” value ([1]; Bouvardin 0.006 uM + 1 Gy IR)?
**A.** The value was 1.626.

**Q.** What about the “Fraction Affected” value ([1]; Bouvardin 0.006 uM + 1 Gy IR) of the same compound?
**A.** Its value is 0.301.

**Q.** What about the “Combination Index” value ([1]; Bouvardin 0.006 uM + 2 Gy IR) of the same compound?
**A.** Its value is 1.285.

**Q.** What about the “Fraction Affected” value ([1]; Bouvardin 0.006 uM + 2 Gy IR) of the same compound?
**A.** The value was 0.371.

**Q.** And the “Combination Index” value ([1]; Bouvardin 0.006 uM + 4 Gy IR)?
**A.** The value was 0.732.

**Q.** What about the “Fraction Affected” value ([1]; Bouvardin 0.006 uM + 4 Gy IR) of the same compound?
**A.** Its value is 0.634.

**Q.** What about the “Combination Index” value ([1]; Bouvardin 0.01 uM + 1 Gy IR) of the same compound?
**A.** Its value is 0.433.

**Q.** And the “Fraction Affected” value ([1]; Bouvardin 0.01 uM + 1 Gy IR)?
**A.** The value was 0.45.

**Q.** And the “Combination Index” value ([1]; Bouvardin 0.01 uM + 2 Gy IR)?
**A.** The value was 1.482.

**Q.** And the “Fraction Affected” value ([1]; Bouvardin 0.01 uM + 2 Gy IR)?
**A.** Its value is 0.518.

**Q.** What about the “Combination Index” value ([1]; Bouvardin 0.01 uM + 4 Gy IR) of the same compound?
**A.** Its value is 1.348.

**Q.** And the “Fraction Affected” value ([1]; Bouvardin 0.01 uM + 4 Gy IR)?
**A.** Its value is 0.604.

**Q.** What about the “Combination Index” value ([1]; Bouvardin 0.03 uM + 1 Gy IR) of the same compound?
**A.** Its value is 1.211.

**Q.** And the “Fraction Affected” value ([1]; Bouvardin 0.03 uM + 1 Gy IR)?
**A.** The value was 0.537.

**Q.** And the “Combination Index” value ([1]; Bouvardin 0.03 uM + 2 Gy IR)?
**A.** The value was 0.841.

**Q.** What about the “Fraction Affected” value ([1]; Bouvardin 0.03 uM + 2 Gy IR) of the same compound?
**A.** The value was 0.628.

**Q.** And the “Combination Index” value ([1]; Bouvardin 0.03 uM + 4 Gy IR)?
**A.** The value was 1.284.

**Q.** What about the “Fraction Affected” value ([1]; Bouvardin 0.03 uM + 4 Gy IR) of the same compound?
**A.** The value was 0.624.

**Q.** What about the “Combination Index” value ([1]; Bouvardin 0.06 uM + 1 Gy IR) of the same compound?
**A.** The value was 0.898.

**Q.** And the “Fraction Affected” value ([1]; Bouvardin 0.06 uM + 1 Gy IR)?
**A.** Its value is 0.584.

**Q.** And the “Combination Index” value ([1]; Bouvardin 0.06 uM + 2 Gy IR)?
**A.** The value was 0.962.

**Q.** And the “Fraction Affected” value ([1]; Bouvardin 0.06 uM + 2 Gy IR)?
**A.** Its value is 0.677.

**Q.** What about the “Combination Index” value ([1]; Bouvardin 0.06 uM + 4 Gy IR) of the same compound?
**A.** The value was 1.284.

**Q.** What about the “Fraction Affected” value ([1]; Bouvardin 0.06 uM + 4 Gy IR) of the same compound?
**A.** Its value is 0.813.

**Q.** And the “Combination Index” value ([1]; Bouvardin 0.1 uM + 1 Gy IR)?
**A.** Its value is 1.815.

**Q.** What about the “Fraction Affected” value ([1]; Bouvardin 0.1 uM + 1 Gy IR) of the same compound?
**A.** Its value is 0.607.

**Q.** And the “Combination Index” value ([1]; Bouvardin 0.1 uM + 2 Gy IR)?
**A.** The value was 3.214.

**Q.** What about the “Fraction Affected” value ([1]; Bouvardin 0.1 uM + 2 Gy IR) of the same compound?
**A.** Its value is 0.68.

**Q.** What about the “Combination Index” value ([1]; Bouvardin 0.1 uM + 4 Gy IR) of the same compound?
**A.** Its value is 2.639.

**Q.** What about the “Fraction Affected” value ([1]; Bouvardin 0.1 uM + 4 Gy IR) of the same compound?
**A.** Its value is 0.712.

**Q.** And the “Combination Index” value ([1]; Bouvardin 0.3 uM + 1 Gy IR)?
**A.** Its value is 2.656.

**Q.** What about the “Fraction Affected” value ([1]; Bouvardin 0.3 uM + 1 Gy IR) of the same compound?
**A.** The value was 0.682.

**Q.** What about the “Combination Index” value ([1]; Bouvardin 0.3 uM + 2 Gy IR) of the same compound?
**A.** Its value is 2.382.

**Q.** What about the “Fraction Affected” value ([1]; Bouvardin 0.3 uM + 2 Gy IR) of the same compound?
**A.** The value was 0.731.

**Q.** What about the “Combination Index” value ([1]; Bouvardin 0.3 uM + 4 Gy IR) of the same compound?
**A.** The value was 3.756.

**Q.** And the “Fraction Affected” value ([1]; Bouvardin 0.3 uM + 4 Gy IR)?
**A.** Its value is 0.708.

**Q.** What about the “Combination Index” value ([1]; Bouvardin 0.6 uM + 1 Gy IR) of the same compound?
**A.** Its value is 4.194.

**Q.** And the “Fraction Affected” value ([1]; Bouvardin 0.6 uM + 1 Gy IR)?
**A.** The value was 0.688.

**Q.** What about the “Combination Index” value ([1]; Bouvardin 0.6 uM + 2 Gy IR) of the same compound?
**A.** The value was 4.765.

**Q.** What about the “Fraction Affected” value ([1]; Bouvardin 0.6 uM + 2 Gy IR) of the same compound?
**A.** Its value is 0.743.

**Q.** What about the “Combination Index” value ([1]; Bouvardin 0.6 uM + 4 Gy IR) of the same compound?
**A.** Its value is 4.11.

**Q.** What about the “Fraction Affected” value ([1]; Bouvardin 0.6 uM + 4 Gy IR) of the same compound?
**A.** Its value is 0.745.

**Q.** And the “Combination Index” value ([1]; Bouvardin 1 uM + 1 Gy IR)?
**A.** Its value is 1.553.

**Q.** And the “Fraction Affected” value ([1]; Bouvardin 1 uM + 1 Gy IR)?
**A.** Its value is 0.254.

**Q.** What about the “Combination Index” value ([1]; Bouvardin 1 uM + 2 Gy IR) of the same compound?
**A.** Its value is 0.903.

**Q.** And the “Fraction Affected” value ([1]; Bouvardin 1 uM + 2 Gy IR)?
**A.** Its value is 0.23.

**Q.** What about the “Combination Index” value ([1]; Bouvardin 1 uM + 4 Gy IR) of the same compound?
**A.** The value was 1.112.

**Q.** What about the “Fraction Affected” value ([1]; Bouvardin 1 uM + 4 Gy IR) of the same compound?
**A.** Its value is 0.503.
